Results published in patent publication US20110207807A1, “NEW USE FOR HOMOISOFLAVONE OR A SALT THEREOF” (Catholic University Industry Academy Cooperation Foundation, priority 2008, published 2011).

How the values were obtained:
[1] = tested on: IL-8; assay: UV-induced IL-8 mRNA expression in HaCaT cells (real-time PCR); assay type: cell-based, human; settings: 1 μg/mL, UV 100 J/m^2, compared to control group (FIG. 3)
Method: 1×10^6 HaCaT cells were inoculated on a 100-mm culture dish and cultured in DMEM containing 10% FBS for 24 hour. Then, the cells were starved by culturing for 24 hours in DMEM containing 1% FBS. Then, after treating with homoisoflavanone at 1 μg/mL for 1 hour, the cells were washed 3 times with PBS and irradiated with UV at 100 J/m^2 to induce increase of cytokines. Immediately after the UV radiation, the cells were washed again with PBS and further cultured for 2 or 5 hours in DMEM containing 1% FBS which had been treated with homoisoflavanone at the same concentration.
After extracting RNA from the cells of each test group using TRIzol (Invitrogen, USA), cDNA was prepared by carrying out PCR (PTC-225 Peltier thermal cycler, MJ Research, USA). Then, the mRNA expression of IL-6, IL-8 and TNF-α was measured through real-time PCR (Roter Gene 6000 series, Corbett Research, Australia) using the cDNA as template and using commercially available IL-6, IL-8 and TNF-α primers. The expression level of the pro-inflammatory cytokines was compared relative to the non-treated group.

[2] = tested on: cPLA2; assay: cPLA2 phosphorylation induced by PMA and A23187 in HMC-1 (Western blot); assay type: cell-based, human; settings: HMC-1, 2 μg/mL, 50 nM PMA + 1 μM A23187, 4 hours (FIG. 7c)
Method: 1×10^6 HMC-1 cells were inoculated on a 100-mm culture dish and cultured in IMDM containing 10% FBS for 48 hours. […] Then, Western blotting was carried out in the same manner as in Example 2-1 except for using rabbit anti-p-cytosolic phospholipase A2 (cPLA2) antibody, rabbit anti-cPLA2 antibody, rabbit anti-ERK antibody and rabbit anti-p-ERK antibody (Cell Signaling) and using anti-rabbit IgG-HRP conjugation antibody (Zymed) as secondary antibody.

[3] = tested on: BALE/c mice; assay: Ear edema induced by UV radiation in animal model; assay type: in vivo, mouse; settings: UV 7.5 kJ/m^2, 72 hours after UV (FIG. 10a)
Method: BALE/c mice were subdivided into a non-treated group (treated with acetone only without UV radiation), a control group (irradiated with UV at 7.5 kJ/m^2) and a test group (treated with 0.6 or 1 μg/10 μL homoisoflavanone and irradiated with UV at 7.5 kJ/m^2). Then, the effect on ear edema induced by UV radiation was investigated.
One hour before irradiating UV at 7.5 kJ/m^2, 1 μg/10 μL homoisoflavanone was applied on the front and rear parts of the ear, 5 μL each. Then, 72 hours after UV radiation, ear thickness was measured.

In the case of COc1ccc(CC2COc3cc(O)cc(O)c3C2=O)cc1O (stereo not shown) [homoisoflavanone], the “expression of IL-8 (mRNA) induced by UV” value [1] is reported as “decreased expression”, the cPLA2 phosphorylation [2] is reported as “inhibited” and the “decrease in ear thickness” value ([3]; 0.6 μg/ear topical) is reported as 44%. For the same compound, the “decrease in ear thickness” value ([3]; 1 μg/ear topical) was 52%.
